Experimental data taken from patent US7015228B2, “4-amino-2-(2-pyridyl)pyrimidines as microbicidal active substances” (Ciba Specialty Chemicals Corporation, priority 2001, dated 2006).
Values after ≈ are worked out from the molar mass of the structure shown.

Experiments:
Assay type in all cases: cell-based
[1] = test system: Staphylococcus hominis DMS 20328; assay: Minimum inhibitory concentration (MIC) in microtitre plates; settings: Table 7; 48 hours at 37° C.; MIC = ≦20% growth compared to control
Procedure, shortened: (§1)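 Compounds in DMSO, 1:2 dilution series; bacteria at 1–5×10^6 CFU/ml diluted 1:100 in CASO broth. Incubation 48 h at 37° C, growth read as OD 620 nm. MIC is the lowest concentration giving ≤20% growth relative to control; duplicates.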

[2] = test system: Escherichia coli NCTC 8196; assay: as above; settings: for Minimum inhibitory concentration (MIC) E. coli: Table 7, 48 hours at 37° C., MIC = ≦20% growth compared to control; for Minimum inhibitory concentration (MIC) E. coli NCTC 8196: Table 8, * = significant inhibition of growth, but not complete inhibition
Procedure, shortened: as §1

[3] = test system: Klebsiella pneumonia ATCC 4352; assay: Minimum inhibitory concentration (MIC), further microorganisms; settings: Table 8; * = significant inhibition of growth, but not complete inhibition
Procedure, shortened: (§2)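 Organisms at 1–5×10^6 CFU/ml were diluted 1:100 into CASO broth (bacteria, yeast) or Sabouraud 2% glucose broth (mould) over 1:2 DMSO dilution series of compound. Bacteria and yeast were incubated 48 h at 37 °C and mould 5 days at 28 °C. MIC is the lowest concentration giving ≤20% growth versus control by OD620, in duplicate.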

[4] = test system: Epidermophyton floccosum DSM 10709; assay: as above; settings: Table 8; * = significant inhibition of growth, but not complete inhibition
Procedure, shortened: as §2

[5] = test system: Pseudomonas aeruginosa CIP A-22; assay: as above; settings: Table 8
Procedure, shortened: as §2

[6] = test system: Enterococcus hirae ATCC 10541; assay: as above; settings: Table 8; * = significant inhibition of growth, but not complete inhibition
Procedure, shortened: as §2

[7] = test system: S. epidermidis ATCC 12228; assay: as above; settings: Table 8; * = significant inhibition of growth, but not complete inhibition
Procedure, shortened: as §2

[8] = test system: Micrococcus luteus ATCC 9341; assay: as above; settings: Table 8; * = significant inhibition of growth, but not complete inhibition
Procedure, shortened: as §2

[9] = test system: Candida albicans ATCC 10231; assay: as above; settings: Table 8; * = significant inhibition of growth, but not complete inhibition
Procedure, shortened: as §2

[10] = test system: Salmonella choleraesuis ATCC 10708; assay: as above; settings: Table 8
Procedure, shortened: as §2

[11] = test system: Aspergillus niger ATCC 6275; assay: as above; settings: Table 8; * = significant inhibition of growth, but not complete inhibition
Procedure, shortened: as §2

[12] = test system: Trichophyton mentagrophytes ATCC 9533; assay: as above; settings: Table 8; * = significant inhibition of growth, but not complete inhibition
Procedure, shortened: as §2

[13] = test system: Staphylococcus aureus ATCC 9144; assay: as above; settings: Table 8; * = significant inhibition of growth, but not complete inhibition
Procedure, shortened: as §2

COCCc1cc(NCCCCCCCCCCCCN)nc(-c2ccccn2)n1 [compound 79]
Minimum inhibitory concentration (MIC) S. hominis [1]: 10 µg/mL (≈ 24.2 µM) | Minimum inhibitory concentration (MIC) E. coli [2]: 20 µg/mL (≈ 48.4 µM) | Minimum inhibitory concentration (MIC) E. coli NCTC 8196 [2]: 60 µg/mL (≈ 145 µM) | Minimum inhibitory concentration (MIC) Klebsiella pneumonia ATCC 4352 [3]: >60 µg/mL | Minimum inhibitory concentration (MIC) Epidermophyton floccosum DSM 10709 [4]: >60 µg/mL | Minimum inhibitory concentration (MIC) Pseudomonas aeruginosa CIP A-22 [5]: >60 µg/mL | Minimum inhibitory concentration (MIC) Enterococcus hirae ATCC 10541 [6]: >60 µg/mL | Minimum inhibitory concentration (MIC) S. epidermidis ATCC 12228 [7]: 30 µg/mL (≈ 72.5 µM) | Minimum inhibitory concentration (MIC) Micrococcus luteus ATCC 9341 [8]: 60 µg/mL (≈ 145 µM) | Minimum inhibitory concentration (MIC) Candida albicans ATCC 10231 [9]: *30 μg/mL | Minimum inhibitory concentration (MIC) Salmonella choleraesuis ATCC 10708 [10]: >60 µg/mL | Minimum inhibitory concentration (MIC) Aspergillus niger ATCC 6275 [11]: >60 µg/mL | Minimum inhibitory concentration (MIC) Trichophyton mentagrophytes ATCC 9533 [12]: >60 µg/mL | Minimum inhibitory concentration (MIC) Staphylococcus aureus ATCC 9144 [13]: *60 μg/mL

CCCCCCCCCCCNc1nc(-c2ccccn2)nc(C)c1CC [compound 89]
Minimum inhibitory concentration (MIC) S. hominis [1]: 3.75 µg/mL (≈ 10.2 µM) | Minimum inhibitory concentration (MIC) E. coli [2]: >120 µg/mL | Minimum inhibitory concentration (MIC) E. coli NCTC 8196 [2]: >60 µg/mL | Minimum inhibitory concentration (MIC) Klebsiella pneumonia ATCC 4352 [3]: 60 µg/mL (≈ 163 µM) | Minimum inhibitory concentration (MIC) Epidermophyton floccosum DSM 10709 [4]: 15 µg/mL (≈ 40.7 µM) | Minimum inhibitory concentration (MIC) Pseudomonas aeruginosa CIP A-22 [5]: >60 µg/mL | Minimum inhibitory concentration (MIC) Enterococcus hirae ATCC 10541 [6]: 7.5 µg/mL (≈ 20.3 µM) | Minimum inhibitory concentration (MIC) S. epidermidis ATCC 12228 [7]: 7.5 µg/mL (≈ 20.3 µM) | Minimum inhibitory concentration (MIC) Micrococcus luteus ATCC 9341 [8]: 1.9 µg/mL (≈ 5.16 µM) | Minimum inhibitory concentration (MIC) Candida albicans ATCC 10231 [9]: 15 µg/mL (≈ 40.7 µM) | Minimum inhibitory concentration (MIC) Salmonella choleraesuis ATCC 10708 [10]: >60 µg/mL | Minimum inhibitory concentration (MIC) Aspergillus niger ATCC 6275 [11]: 30 µg/mL (≈ 81.4 µM) | Minimum inhibitory concentration (MIC) Trichophyton mentagrophytes ATCC 9533 [12]: *7.5 μg/mL | Minimum inhibitory concentration (MIC) Staphylococcus aureus ATCC 9144 [13]: 7.5 µg/mL (≈ 20.3 µM)

CCCCCCCCCCCCCCCNc1nc(-c2ccccn2)nc(C)c1CC [compound 90]
Minimum inhibitory concentration (MIC) S. hominis [1]: 30 µg/mL (≈ 70.6 µM) | Minimum inhibitory concentration (MIC) E. coli [2]: 120 µg/mL (≈ 283 µM) | Minimum inhibitory concentration (MIC) E. coli NCTC 8196 [2]: >60 µg/mL | Minimum inhibitory concentration (MIC) Klebsiella pneumonia ATCC 4352 [3]: >60 µg/mL | Minimum inhibitory concentration (MIC) Epidermophyton floccosum DSM 10709 [4]: 60 µg/mL (≈ 141 µM) | Minimum inhibitory concentration (MIC) Pseudomonas aeruginosa CIP A-22 [5]: >60 µg/mL | Minimum inhibitory concentration (MIC) Enterococcus hirae ATCC 10541 [6]: 30 µg/mL (≈ 70.6 µM) | Minimum inhibitory concentration (MIC) S. epidermidis ATCC 12228 [7]: *30 μg/mL | Minimum inhibitory concentration (MIC) Micrococcus luteus ATCC 9341 [8]: 15 µg/mL (≈ 35.3 µM) | Minimum inhibitory concentration (MIC) Candida albicans ATCC 10231 [9]: *60 μg/mL | Minimum inhibitory concentration (MIC) Salmonella choleraesuis ATCC 10708 [10]: >60 µg/mL | Minimum inhibitory concentration (MIC) Aspergillus niger ATCC 6275 [11]: >120 µg/mL | Minimum inhibitory concentration (MIC) Trichophyton mentagrophytes ATCC 9533 [12]: >120 µg/mL | Minimum inhibitory concentration (MIC) Staphylococcus aureus ATCC 9144 [13]: *30 μg/mL

CCCCCCCCCCCNc1cc(C)nc(-c2ccccn2)n1 [compound 92]
Minimum inhibitory concentration (MIC) S. hominis [1]: 3.75 µg/mL (≈ 11 µM) | Minimum inhibitory concentration (MIC) E. coli [2]: >120 µg/mL | Minimum inhibitory concentration (MIC) E. coli NCTC 8196 [2]: >120 µg/mL | Minimum inhibitory concentration (MIC) Klebsiella pneumonia ATCC 4352 [3]: 120 µg/mL (≈ 352 µM) | Minimum inhibitory concentration (MIC) Epidermophyton floccosum DSM 10709 [4]: 15 µg/mL (≈ 44.1 µM) | Minimum inhibitory concentration (MIC) Pseudomonas aeruginosa CIP A-22 [5]: >120 µg/mL | Minimum inhibitory concentration (MIC) Enterococcus hirae ATCC 10541 [6]: 3.75 µg/mL (≈ 11 µM) | Minimum inhibitory concentration (MIC) S. epidermidis ATCC 12228 [7]: *1.9 μg/mL | Minimum inhibitory concentration (MIC) Micrococcus luteus ATCC 9341 [8]: <0.5 µg/mL | Minimum inhibitory concentration (MIC) Candida albicans ATCC 10231 [9]: 15 µg/mL (≈ 44.1 µM) | Minimum inhibitory concentration (MIC) Salmonella choleraesuis ATCC 10708 [10]: >120 µg/mL | Minimum inhibitory concentration (MIC) Aspergillus niger ATCC 6275 [11]: *60 μg/mL | Minimum inhibitory concentration (MIC) Trichophyton mentagrophytes ATCC 9533 [12]: 15 µg/mL (≈ 44.1 µM) | Minimum inhibitory concentration (MIC) Staphylococcus aureus ATCC 9144 [13]: 3.75 µg/mL (≈ 11 µM)

CCCCCCCCCCCCCCCNc1cc(C)nc(-c2ccccn2)n1 [compound 93]
Minimum inhibitory concentration (MIC) S. hominis [1]: 7.5 µg/mL (≈ 18.9 µM) | Minimum inhibitory concentration (MIC) E. coli [2]: >120 µg/mL | Minimum inhibitory concentration (MIC) E. coli NCTC 8196 [2]: >120 µg/mL | Minimum inhibitory concentration (MIC) Klebsiella pneumonia ATCC 4352 [3]: >120 µg/mL | Minimum inhibitory concentration (MIC) Epidermophyton floccosum DSM 10709 [4]: >60 µg/mL | Minimum inhibitory concentration (MIC) Pseudomonas aeruginosa CIP A-22 [5]: >120 µg/mL | Minimum inhibitory concentration (MIC) Enterococcus hirae ATCC 10541 [6]: 15 µg/mL (≈ 37.8 µM) | Minimum inhibitory concentration (MIC) S. epidermidis ATCC 12228 [7]: 7.5 µg/mL (≈ 18.9 µM) | Minimum inhibitory concentration (MIC) Micrococcus luteus ATCC 9341 [8]: 1.9 µg/mL (≈ 4.79 µM) | Minimum inhibitory concentration (MIC) Candida albicans ATCC 10231 [9]: *120 μg/mL | Minimum inhibitory concentration (MIC) Salmonella choleraesuis ATCC 10708 [10]: >120 µg/mL | Minimum inhibitory concentration (MIC) Aspergillus niger ATCC 6275 [11]: >60 µg/mL | Minimum inhibitory concentration (MIC) Trichophyton mentagrophytes ATCC 9533 [12]: >60 µg/mL | Minimum inhibitory concentration (MIC) Staphylococcus aureus ATCC 9144 [13]: 15 µg/mL (≈ 37.8 µM)

CCCCCCCCCCCNc1cc(C(C)C)nc(-c2ccccn2)n1 [compound 98]
Minimum inhibitory concentration (MIC) S. hominis [1]: 3.75 µg/mL (≈ 10.2 µM) | Minimum inhibitory concentration (MIC) E. coli [2]: >120 µg/mL | Minimum inhibitory concentration (MIC) E. coli NCTC 8196 [2]: 120 µg/mL (≈ 326 µM) | Minimum inhibitory concentration (MIC) Klebsiella pneumonia ATCC 4352 [3]: 120 µg/mL (≈ 326 µM) | Minimum inhibitory concentration (MIC) Epidermophyton floccosum DSM 10709 [4]: 15 µg/mL (≈ 40.7 µM) | Minimum inhibitory concentration (MIC) Pseudomonas aeruginosa CIP A-22 [5]: >120 µg/mL | Minimum inhibitory concentration (MIC) Enterococcus hirae ATCC 10541 [6]: 1.9 µg/mL (≈ 5.16 µM) | Minimum inhibitory concentration (MIC) S. epidermidis ATCC 12228 [7]: 1.9 µg/mL (≈ 5.16 µM) | Minimum inhibitory concentration (MIC) Micrococcus luteus ATCC 9341 [8]: <0.5 µg/mL | Minimum inhibitory concentration (MIC) Candida albicans ATCC 10231 [9]: 30 µg/mL (≈ 81.4 µM) | Minimum inhibitory concentration (MIC) Salmonella choleraesuis ATCC 10708 [10]: >120 µg/mL | Minimum inhibitory concentration (MIC) Aspergillus niger ATCC 6275 [11]: >60 µg/mL | Minimum inhibitory concentration (MIC) Trichophyton mentagrophytes ATCC 9533 [12]: >60 µg/mL | Minimum inhibitory concentration (MIC) Staphylococcus aureus ATCC 9144 [13]: 1.9 µg/mL (≈ 5.16 µM)

CCCCCCCCCCCCCCCNc1cc(C(C)C)nc(-c2ccccn2)n1 [compound 99]
Minimum inhibitory concentration (MIC) S. hominis [1]: 15 µg/mL (≈ 35.3 µM) | Minimum inhibitory concentration (MIC) E. coli [2]: >120 µg/mL | Minimum inhibitory concentration (MIC) E. coli NCTC 8196 [2]: >60 µg/mL | Minimum inhibitory concentration (MIC) Klebsiella pneumonia ATCC 4352 [3]: >60 µg/mL | Minimum inhibitory concentration (MIC) Epidermophyton floccosum DSM 10709 [4]: *60 μg/mL | Minimum inhibitory concentration (MIC) Pseudomonas aeruginosa CIP A-22 [5]: >60 µg/mL | Minimum inhibitory concentration (MIC) Enterococcus hirae ATCC 10541 [6]: 3.75 µg/mL (≈ 8.83 µM) | Minimum inhibitory concentration (MIC) S. epidermidis ATCC 12228 [7]: 3.75 µg/mL (≈ 8.83 µM) | Minimum inhibitory concentration (MIC) Micrococcus luteus ATCC 9341 [8]: 1.0 µg/mL (≈ 2.35 µM) | Minimum inhibitory concentration (MIC) Candida albicans ATCC 10231 [9]: >60 µg/mL | Minimum inhibitory concentration (MIC) Salmonella choleraesuis ATCC 10708 [10]: >60 µg/mL | Minimum inhibitory concentration (MIC) Aspergillus niger ATCC 6275 [11]: >60 µg/mL | Minimum inhibitory concentration (MIC) Trichophyton mentagrophytes ATCC 9533 [12]: >60 µg/mL | Minimum inhibitory concentration (MIC) Staphylococcus aureus ATCC 9144 [13]: 7.5 µg/mL (≈ 17.7 µM)
